Measured values from US10453555B2, “Parameterizing cell-to-cell regulatory heterogeneities via stochastic transcriptional profiles” (University of Virginia Patent Foundation, priority 2015, dated 2019).

What was measured:
p110δ = assay: IC87114 inhibitor validation: pAkt immunoblotting after lysophosphatidic acid stimulation; type: cell-based, human; details: MCF10A-5E cells, 20 μM IC87114 pre-treatment for one hour, 10 μM lysophosphatidic acid for five minutes
Method: For p110δ inhibitor experiments, 20 μM IC87114 (Calbiochem) was added to the assay medium and replaced every four days. IC87114 inhibitor validation was performed as follows. MCF10A-5E cells were plated in 6-well dishes and cultured in serum-free medium overnight. Wells were pre-treated with or without 20 μM IC87114 (Calbiochem) for one hour and then stimulated with 10 μM lysophosphatidic acid (Sigma-Aldrich) for five minutes. Cells were lysed as previously described (Wang et al. (2011) Proc Natl Acad U S A 108(40):E803-812), and lysates were probed for pAkt levels by immunoblotting.
Immunoblotting was performed as follows. 30-50 μg of clarified cell extract was separated on an 8% or 10% SDS-PAGE gel and transferred to PVDF (Millipore). Membranes were blocked in 0.5×Odyssey blocking buffer (Licor) for one hour and incubated overnight at 4° C. in 0.5×Odyssey blocking buffer with 0.1% Tween containing one of the following primary antibodies: anti-p110δ (1:500; Santa Cruz Biotechnology) or anti-pAkt Ser473 (1:1000; Cell Signaling). Additionally, chicken anti-tubulin (1:20000; Abeam) was added to each primary solution as a loading control. […]

MCF10A-5E cells = assay: Proliferation of acini in 3D culture (phospho-Rb whole-mount immunofluorescence); type: cell-based, human; details: shGFP control cells + 20 μM IC87114, replaced every four days
Method: We next asked whether PIK3CD was specifically important for normal acinar morphogenesis. To eliminate the very-rare PIK3CD^hi subpopulation, p110δ was perturbed by two independent methods: RNA interference and the p110δ-specific small-molecule inhibitor, IC87114 (Knight et al. (2006) Cell 125(4):733-747) (FIG. 18A and FIG. 21). […] Primers were annealed at 95° C. in annealing buffer (10 mM Tris-HCl, 100 mM NaCl, 1 mM EDTA) for 5 min on a thermocycler and cooled slowly to room temperature by unplugging the instrument. Annealed primers were phosphorylated in vitro with T4 polynucleotide kinase (New England Biolabs) and then cloned into pLKO.1 puro (Moffat et al. (2006) Cell 124(6):1283-1298) that had been digested with EcoRI and AgeI. Lentiviruses were packaged and transduced into MCF10A-5E cells and selecting with 2 μg/ml puromycin as previously described (Wang et al. (2011) Proc Natl Acad Sci U S A 108(40):E803-812) to produce shGFP and shPIK3CD cell lines. MCF10A (shGFP, and shPIK3CD) cell lines were cultured in 3D as previously described (Debnath et al. (2003) Methods 30(3):256-268). […]
Whole-mount immunofluorescence of shGFP and shPIK3CD cultures was performed as previously described (Wang et al. (2011) Proc Natl Acad U S A 108(40):E803-812). […] Samples were scored for pRb-positive acini as before (Wang et al. (2011) Proc Natl Acad Sci U S A 108(40):E803-812).

With `Cc1ccccc1-n1c(Cn2cnc3c(N)ncnc32)nc2cccc(C)c2c1=O` [IC87114] the “Akt phosphorylation (pAkt Ser473 levels) stimulated by p110δ” value (p110δ) was “inhibits Akt phosphorylation” and the “proliferating (pRb-positive) acini” value (MCF10A-5E cells) was “sustained proliferation”.
